Read-outs that look alike come from different tables or passages of the source.
B1: IL-27: cytokine of the panel of T cell survival and/or proliferation cytokines (protein, UniProt Q8NEV9 29-243; Q14213 21-229, looked up)
Interleukin-27 subunit alpha: FPRPPGRPQLSLQELRREFTVSLHLARKLLSEVRGQAHRFAESHLPGVNLYLLPLGEQLPDVSLTFQAWRRLSDPERLCFISTTLQPFHALLGGLGTQGRWTNMERMQLWAMRLDLRDLQRHLRFQVLAAGFNLPEEEEEEEEEEEEERKGLLPGALGSALQGPAQVSWPQLLSTYRLLHSLELVLSRAVRELLLLSKAGHSVWPLGFPTLSPQP
Interleukin-27 subunit beta: RKGPPAALTLPRVQCRASRYPIAVDCSWTLPPAPNSTSPVSFIATYRLGMAARGHSWPCLQQTPTSTSCTITDVQLFSMAPYVLNVTAVHPWGSSSSFVPFITEHIIKPDPPEGVRLSPLAERQLQVQWEPPGSWPFPEIFSLKYWIRYKRQGAARFHRVGPIEATSFILRAVRPRARYYVQVAAQDLTDYGELSDWSLPATATMSLGK
B2: IL-7: recombinant mouse IL-7 (Peprotech) (protein, UniProt P10168 26-154, looked up)
Interleukin-7: ECHIKDKEGKAYESVLMISIDELDKMTGTDSNCPNNEPNFFRKHVCDDTKEAAFLNRAARKLKQFLKMNISEEFNVHLLTVSQGTQTLVNCTSKEEKNVKEQKKNDACFLKRLLREIKTCWNKILKGSI

Key:
human T cells = test: ConA-induced activation and expansion of human T cells (high-throughput screen); type: cell-based; settings: for EC50: T-cell, 168 h, read-out: EC50-T cells
T cells = test: Cytokine rescue of T cell proliferation from MEK inhibition; type: cell-based, human; settings: IL-2 20 U/ml, IL-7 2 ng/ml, IL-15 10 ng/ml, IL-21 100 ng/ml, IL-27 50 ng/ml, ALT-803 35.7 ng/ml
Text: Proliferation of CD8 T cells after 7 days is shown.
Proliferation of CD8 T cells is shown.
Reported are percentages of cells that proliferated with GDC0973 relative to vehicle treatment with the same cytokines after 7 days. Stains are not depicted.
T cell stimulation—For human T cell proliferation assays, peripheral blood lymphocytes were obtained by leukapheresis/elutriation and Miltenyi bead-purified and K562 cells expressing human CD32 were generated as previously described^41. K32 were γ-irradiated (100 Gy) and loaded with anti-CD3 (500 ng/ml, clone OKT3; eBioscience) plus anti-CD28 (500 ng/ml, clone 15E8; EMD Millipore) antibodies at room temperature for 10 minutes. PBMCs were labeled with CELLTRACE Violet stain (Invitrogen) according to the manufacturer's instructions and cocultured with loaded K32 cells at a 10:1 T cell to K32 ratio or activated with ConA (2 μg/ml, Sigma). Proliferation of stimulated T cells was determined 7 days later by FACS and Division Index was calculated using FlowJo™ software.

[1] = tested on: A2780 ovarian cancer cells; test: Molecular screening of compounds on A2780 cell proliferation (resazurin fluorescence); type: cell-based, human; settings: for EC50: Homo sapiens, A2780 cells cultured 3 days (72 hrs), from normalized percent inhibition, N/A = ambiguous curve fits or EC50 greater than highest concentration tested (25 μM)
Protocol: Plots show the normalized percent inhibition (NPI) vs. concentration in log (μM).
(§1) Cell proliferation assays—Cells were plated in 96-well plates. Compounds were added the next morning, and cell proliferation was measured 48 hrs later with the […] 96 MTS assay (Promega) according to the manufacturer's instructions. Molecular screening of compounds on A2780 cells was performed by adding compounds the morning after plating in 384-well plates and measuring proliferation 72 hrs later with resazurin fluorescence. Normalized percent inhibition (NPI) was calculated with respect to fluorescence values obtained with DMSO negative control and doxorubicin (5 μM) positive control as NPI=100%*(DMSO−compound)/(DMSO−doxorubicin).
EC50 values were calculated from normalized percent inhibition data using non-linear curve fitting in PRISM software.

MCF-7 tumor cells = test: MCF-7 cell proliferation, MTS assay; type: cell-based, human; settings: 2 days, compared with T cell division indices
Protocol: Representative results from one of two independent experiments.
as §1

[2] = human T cells activated with ConA for 7 days, from normalized percent inhibition, N/A = ambiguous curve fits or EC50 greater than highest concentration tested (25 μM)

Row | Molecule | EC50 (human T cells; [2]) [nM] | rescue of T cell proliferation in the presence of the MEK inhibitors (T cells) | other results
1 | Cc1[nH]c2ccccc2c1CCNCc1ccc(/C=C/C(=O)NO)cc1 [LBH589] | 25 |  | 
2 | IL-15: Recombinant human IL-15 (Novoprotein); proliferative cytokine |  | able to rescue | 
3 | Cn1c(=O)n(-c2ccc(C(C)(C)C#N)cc2)c2c3cc(-c4cnc5ccccc5c4)ccc3ncc21 [BEZ235] | 2.4 |  | EC50 [1]: 21 nM
4 | IL-21: cytokine of the panel of T cell survival and/or proliferation cytokines |  | no effect | 
5 | N#CC(=C(/N)Sc1ccccc1N)/C(C#N)=C(\N)Sc1ccccc1N [U0126] |  |  | EC50 [1]: 12600 nM; EC50 (human T cells; Homo sapiens): 1920 nM
6 | C[C@]1(O)C[C@@H](c2nc(-c3ccc4ccc(-c5ccccc5)nc4c3)c3c(N)nccn32)C1 [OSI906] |  |  | activity on A2780 cells (in words) [1]: did not show any activity; MCF-7 tumor cell proliferation (MCF-7 tumor cells): reduction in tumor cell proliferation at concentrations that did not affect T cells; activity on T cells (in words) (human T cells; ConA-driven in vitro proliferation of human T cells): did not show any activity
7 | CC(=O)c1c(C)c2cnc(Nc3ccc(N4CCNCC4)cn3)nc2n(C2CCCC2)c1=O [PD0332991] | 110 |  | 
8 | CN(C)CC[C@H](CSc1ccccc1)Nc1ccc(S(=O)(=O)NC(=O)c2ccc(N3CCN(Cc4ccccc4-c4ccc(Cl)cc4)CC3)cc2)cc1[N+](=O)[O-] [ABT737] | 61 |  | 
9 | B1 |  | no effect | 
10 | B2 |  | able to rescue | 

From patent US10258625B2, “Method for treatment of metastatic and refractory cancers and tumors with an inducer that overcomes inhibition of T cell proliferation” (The Wistar Institute of Anatomy and Biology, priority 2015, dated 2019)
